Assay results: patent publication US7786141B2 (Vertex Pharmaceuticals Incorporated, priority 2004, dated 2010)
Read-outs that look alike come from different tables or passages of the source.

Experiments:
M1 muscarinic receptor = molecular target: T1, M1 muscarinic receptor (Homo sapiens, UniProt P11229); test: Functional mobilization of intracellular calcium (FLIPR) in M1-CHO cells; assay type: cell-based; conditions: for M1 Activity: modulating M1 receptor
T1 construct: expressed in transfected cells; host or cells: CHO (M1-CHO)
T1 sequence (P11229 1-460): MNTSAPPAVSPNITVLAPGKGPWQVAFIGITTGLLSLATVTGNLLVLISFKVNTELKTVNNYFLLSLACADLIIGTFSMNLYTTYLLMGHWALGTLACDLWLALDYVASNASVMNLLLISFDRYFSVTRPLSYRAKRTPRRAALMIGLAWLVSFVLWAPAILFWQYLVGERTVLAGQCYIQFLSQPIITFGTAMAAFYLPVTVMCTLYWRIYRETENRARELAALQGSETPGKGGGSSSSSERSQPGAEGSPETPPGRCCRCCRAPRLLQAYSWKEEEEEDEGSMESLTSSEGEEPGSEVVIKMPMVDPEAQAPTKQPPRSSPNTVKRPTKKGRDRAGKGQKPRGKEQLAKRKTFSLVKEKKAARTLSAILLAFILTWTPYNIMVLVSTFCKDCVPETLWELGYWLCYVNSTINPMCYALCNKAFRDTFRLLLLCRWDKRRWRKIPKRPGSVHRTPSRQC
In short: (§1)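 Intracellular calcium rise is measured by FLIPR fluorescence over 60 sec in CHO cells carrying human M1 or M4 receptors. Compounds are tested alone as agonists, or pre-incubated 15 min (or co-applied) ahead of carbachol at its EC80 to detect inhibition.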

M4 muscarinic receptor = molecular target: T2, M4 muscarinic receptor (Homo sapiens, UniProt P08173); test: Functional mobilization of intracellular calcium (FLIPR) in M4-CHO cells; assay type: cell-based; conditions: for M4 Activity: modulating M4 receptor
T2 construct: expressed in transfected cells; host or cells: CHO (M4-CHO)
T2 sequence (P08173 1-479): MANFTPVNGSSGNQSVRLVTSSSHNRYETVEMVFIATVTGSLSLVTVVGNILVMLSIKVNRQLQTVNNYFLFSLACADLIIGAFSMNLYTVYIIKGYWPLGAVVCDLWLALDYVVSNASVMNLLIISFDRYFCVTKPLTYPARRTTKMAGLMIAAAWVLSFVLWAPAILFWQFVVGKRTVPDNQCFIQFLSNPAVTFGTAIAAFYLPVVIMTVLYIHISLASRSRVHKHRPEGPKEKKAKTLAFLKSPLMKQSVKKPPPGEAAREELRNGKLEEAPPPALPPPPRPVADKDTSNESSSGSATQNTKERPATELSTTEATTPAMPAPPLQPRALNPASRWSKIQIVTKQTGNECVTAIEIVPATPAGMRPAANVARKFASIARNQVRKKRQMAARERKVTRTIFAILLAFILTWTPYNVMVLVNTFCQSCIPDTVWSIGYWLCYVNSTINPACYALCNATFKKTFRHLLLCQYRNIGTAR
In short: as §1

[1] = M1-CHO cells, calcium mobilization (FLIPR)
[2] = M1-CHO cells, calcium mobilization (FLIPR), read-out: M1 Efficacy
[3] = M4-CHO cells, calcium mobilization (FLIPR)
[4] = M4-CHO cells, calcium mobilization (FLIPR), read-out: M4 Efficacy
[5] = Table 4, 100% efficacy is the maximum response obtained with the Carbachol control

c1ccc2c(c1)NCC21CCN(C2CC3CCC(C3)C2)CC1 (stereo not shown) [compound 420]
EC50 (M1 muscarinic receptor; [1]): 100 to 1000 nM
Emax (M1 muscarinic receptor; [2]): < 65%
EC50 (M4 muscarinic receptor; [3]): > 1000 nM
Emax (M4 muscarinic receptor; [4]): < 65%

CC(=O)NC1CC2(CCN(C[C@@H]3C[C@H]4C=C[C@H]3C4)CC2)c2ccccc21 (stereo partly shown) [compound 421]
EC50 (M1 muscarinic receptor; [1]): > 1000 nM
M1 Efficacy (M1 muscarinic receptor; [1]): x (efficacy was calculated to be less than 65%)
EC50 (M4 muscarinic receptor; [3]): > 1000 nM
M4 Efficacy (M4 muscarinic receptor; [3]): x (efficacy was calculated to be less than 65%)

COCCOC(=O)N1CC2(CCN(C3CC4CCC(C3)N4C(=O)OC(C)C)CC2)c2cc(F)ccc21 (stereo not shown) [compound 422]
EC50 (M1 muscarinic receptor; [1]): < 100 nM
Emax (M1 muscarinic receptor; [2]): < 65%
EC50 (M4 muscarinic receptor; [3]): > 1000 nM
Emax (M4 muscarinic receptor; [4]): < 65%

COC(=O)N1CCC(CN2CCC3(CC2)CN(C(C)=O)c2ccc(C)cc23)CC1 [compound 423]
EC50 (M1 muscarinic receptor; [1]): 100 to 1000 nM
Emax (M1 muscarinic receptor; [2]): < 65%
EC50 (M4 muscarinic receptor; [3]): > 1000 nM
Emax (M4 muscarinic receptor; [4]): < 65%

CC(=O)N1CC2(CCN(C3CCN(C(=O)O[C@@H]4CCOC4)CC3)CC2)c2cc(F)ccc21 [compound 424]
EC50 (M1 muscarinic receptor; [1]): > 1000 nM
Emax (M1 muscarinic receptor; [2]): < 65%
EC50 (M4 muscarinic receptor; [3]): > 1000 nM
Emax (M4 muscarinic receptor; [4]): < 65%

CC(=O)N1CC2(CCN(C3CCCC(C(F)(F)F)C3)CC2)c2cc(F)ccc21 (stereo not shown) [compound 425]
EC50 (M1 muscarinic receptor; [1]): > 1000 nM
Emax (M1 muscarinic receptor; [2]): < 65%
EC50 (M4 muscarinic receptor; [3]): > 1000 nM
Emax (M4 muscarinic receptor; [4]): < 65%

CCOC(=O)N1CCC(N2CCC3(CC2)CN(C(C)=O)c2ccc(C4=CCCC4)cc23)CC1 [compound 426]
EC50 (M1 muscarinic receptor; [1]): > 1000 nM
Emax (M1 muscarinic receptor; [2]): < 65%
EC50 (M4 muscarinic receptor; [3]): > 1000 nM
Emax (M4 muscarinic receptor; [4]): < 65%

CCOC(=O)N1CCC(N2CCC3(CC2)CN(C(=O)OCC)c2ccc(F)cc23)CC1 [compound 427]
EC50 (M1 muscarinic receptor; [1]): 100 to 1000 nM
Emax (M1 muscarinic receptor; [2]): < 65%
EC50 (M4 muscarinic receptor; [3]): > 1000 nM
Emax (M4 muscarinic receptor; [4]): < 65%

CCOC(=O)N1CCC(N2CCC3(CC2)CN(C(=O)O[C@H]2CCOC2)c2ccc(F)cc23)CC1 [compound 428]
EC50 (M1 muscarinic receptor; [1]): 100 to 1000 nM
Emax (M1 muscarinic receptor; [2]): < 65%
EC50 (M4 muscarinic receptor; [3]): > 1000 nM
Emax (M4 muscarinic receptor; [4]): < 65%

Fc1ccc2c(c1)C1(CCN(C[C@@H]3C[C@H]4CC[C@H]3O4)CC1)CN2 [compound 429]
EC50 (M1 muscarinic receptor; [1]): 100 to 1000 nM
Emax (M1 muscarinic receptor; [2]): < 65%
EC50 (M4 muscarinic receptor; [3]): > 1000 nM
Emax (M4 muscarinic receptor; [4]): < 65%

CCOC(=O)N1CCC(N2CCC3(CC2)C[C@@H](NC(C)=O)c2ccccc23)CC1 [compound 430]
EC50 (M1 muscarinic receptor; [1]): 100 to 1000 nM
Emax (M1 muscarinic receptor; [2]): < 65%
EC50 (M4 muscarinic receptor; [3]): > 1000 nM
Emax (M4 muscarinic receptor; [4]): < 65%

CCOC(=O)N1CCC(N2CCC3(CC2)CN(C(C)=O)c2c(F)ccc(F)c23)CC1 [compound 431]
Emax (M1 muscarinic receptor; [5]): 25 to 100%
M1 Activity (M1 muscarinic receptor; Table 4): xx (activity was measured to be between 2.0 μM and 5.0 μM)
Emax (M4 muscarinic receptor; [5]): 25 to 100%
M4 Activity (M4 muscarinic receptor; Table 4): xx (activity was measured to be between 2.0 μM and 5.0 μM)

CC(C)C(=O)N[C@@H]1CC2(CCN(C[C@H]3C[C@H]4CC[C@H]3C4)CC2)c2ccccc21 [compound 432]
Emax (M1 muscarinic receptor; [5]): < 25%
M1 Activity (M1 muscarinic receptor; Table 4): x (activity was measured to be greater than 5.0 μM)
Emax (M4 muscarinic receptor; [5]): < 25%
M4 Activity (M4 muscarinic receptor; Table 4): x (activity was measured to be greater than 5.0 μM)
